Tests used:
jack bean urease = molecular target: T1, jack bean urease (Canavalia ensiformis, UniProt P07374); assay: Urease activity inhibition test (13C-urea, 13C-NMR), jack bean urease; format: biochemical
T1 construct: purchased
Experimental: Using ^13C-urea as a substrate, the amount of urea, which is eliminated due to the urease enzyme reaction, was measured with a lapse of time by means of ^13C-NMR. On the basis of an elimination rate (M/sec) of ^13C-urea in the absence of the urease inhibitor sample, the case where the elimination rate in the presence of the sample is reduced to half was calculated as IC50 of the sample. […]
Each sample was inserted into a probe and the enzyme reaction was conducted at the reaction temperature (temperature of the probe) of 20° C. and the measurement was conducted every 20 seconds after 1 to 4 minutes have passed since the beginning of the reaction, while the measurement was conducted every one minute after 4 or more minutes have passed, using a ^13C-NMR apparatus. Consequently, an elimination rate (M/sec) of a signal (165 ppm) of ^13C-urea as the substrate was determined. […]
Using the respective compounds obtained in Reference Examples 2 to 5 as the test compound, the same test (using the jack bean urease) was repeated and IC50 of each test compounds was determined, thus calculating a relative urease inhibitory activity value relative to a standard (1) for the same value of BIT. […]

[1] = molecular target: Helicobacter pylori urease (Helicobacter pylori, UniProt P69996); assay: Urease activity inhibition test (13C-urea, 13C-NMR), Helicobacter pylori urease; format: biochemical
Chain of Helicobacter pylori urease (P14916 whole entry): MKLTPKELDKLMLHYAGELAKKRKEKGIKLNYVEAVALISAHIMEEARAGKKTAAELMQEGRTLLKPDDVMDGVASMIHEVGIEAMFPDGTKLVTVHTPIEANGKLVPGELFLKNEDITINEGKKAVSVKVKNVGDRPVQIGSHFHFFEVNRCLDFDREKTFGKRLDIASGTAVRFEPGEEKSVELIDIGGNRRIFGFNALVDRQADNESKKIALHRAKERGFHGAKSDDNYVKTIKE
Chain of Helicobacter pylori urease (P69996 whole entry): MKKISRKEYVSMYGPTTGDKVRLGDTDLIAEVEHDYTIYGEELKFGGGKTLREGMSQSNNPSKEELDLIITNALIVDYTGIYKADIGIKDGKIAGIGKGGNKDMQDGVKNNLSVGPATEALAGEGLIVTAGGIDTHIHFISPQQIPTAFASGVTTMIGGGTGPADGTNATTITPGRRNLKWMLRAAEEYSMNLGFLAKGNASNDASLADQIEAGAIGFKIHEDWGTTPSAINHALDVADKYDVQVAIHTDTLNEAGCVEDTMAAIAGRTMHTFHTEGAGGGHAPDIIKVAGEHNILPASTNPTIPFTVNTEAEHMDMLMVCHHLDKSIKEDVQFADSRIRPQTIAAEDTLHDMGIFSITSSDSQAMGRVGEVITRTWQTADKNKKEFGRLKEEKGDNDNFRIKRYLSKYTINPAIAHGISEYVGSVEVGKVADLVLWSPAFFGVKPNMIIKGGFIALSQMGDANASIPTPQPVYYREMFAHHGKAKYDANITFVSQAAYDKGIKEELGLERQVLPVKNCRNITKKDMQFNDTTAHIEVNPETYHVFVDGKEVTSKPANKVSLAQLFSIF
Experimental: Using ^13C-urea as a substrate, the amount of urea, which is eliminated due to the urease enzyme reaction, was measured with a lapse of time by means of ^13C-NMR. On the basis of an elimination rate (M/sec) of ^13C-urea in the absence of the urease inhibitor sample, the case where the elimination rate in the presence of the sample is reduced to half was calculated as IC50 of the sample.
(Preparation of sample) In a NMR tube having a diameter of 5 mm, Helicobacter pylori urease (manufactured by OTSUKA PHARMACEUTICAL CO., 1.6 units) dissolved in 500 μof a mixed solvent (pH 7) of 400 μl of 0.1M phosphate buffer (pH 7) and 100 μl of DMSO was added and each test compound (urease inhibitor sample) dissolved in 100 μl of ethanol was added, followed by standing at 20° C. for 30 minutes and further standing on an ice bath for 10 minutes. […]
Each sample was inserted into a probe and the enzyme reaction was conducted at the reaction temperature (temperature of the probe) of 20° C. and the measurement was conducted every 20 seconds after 1 to 4 minutes have passed since the beginning of the reaction, while the measurement was conducted every one minute after 4 or more minutes have passed, using a ^13C-NMR apparatus. Consequently, an elimination rate (M/sec) of a signal (165 ppm) of ^13C-urea as the substrate was determined.

[2] = test system: Helicobacter pylori ATCC 43504; assay: Anti-Helicobacter pylori activity test (dilution method); format: cell-based; details: H. pylori ATCC 43504, 3 days culture, OD660nm; compared with metronidazole (MN), FIG. 3
Experimental: An anti-Helicobacter pylori activity test of the compound as an active ingredient of the present invention was conducted in the following procedure using a dilution method. Helicobacter pylori ATCC 43504 strains were innoculated in a medium in petri dish (Brucella agar (BECTON […]), containing 7% FBS) and then cultured in a mixed carbonic acid gas-nitrogen gas culture medium (10% CO2, 5% O2, 85% N2, 37° C.) for 2 days. The strains were recovered, cultured similarly in a liquid medium using a Brucella broth (BECTON […]) for one day and then diluted with the same medium to control […] to 0.1. The test compound was dissolved in 50% ethanol-saline to prepare a 1 mg/ml solution and the solution was 1- to 2048-fold diluted by 12 steps with the same medium to prepare dilution series. In each well of cell culture plate (20 μl/well), each step wisely diluted solution (20 μl) of the test compound was charged and a Brucella medium (containing 7% FBS) (160 μl) was added, and then a pylori strain solution (20 μl) was finally added.

T1 sequence (P07374 whole entry, looked up): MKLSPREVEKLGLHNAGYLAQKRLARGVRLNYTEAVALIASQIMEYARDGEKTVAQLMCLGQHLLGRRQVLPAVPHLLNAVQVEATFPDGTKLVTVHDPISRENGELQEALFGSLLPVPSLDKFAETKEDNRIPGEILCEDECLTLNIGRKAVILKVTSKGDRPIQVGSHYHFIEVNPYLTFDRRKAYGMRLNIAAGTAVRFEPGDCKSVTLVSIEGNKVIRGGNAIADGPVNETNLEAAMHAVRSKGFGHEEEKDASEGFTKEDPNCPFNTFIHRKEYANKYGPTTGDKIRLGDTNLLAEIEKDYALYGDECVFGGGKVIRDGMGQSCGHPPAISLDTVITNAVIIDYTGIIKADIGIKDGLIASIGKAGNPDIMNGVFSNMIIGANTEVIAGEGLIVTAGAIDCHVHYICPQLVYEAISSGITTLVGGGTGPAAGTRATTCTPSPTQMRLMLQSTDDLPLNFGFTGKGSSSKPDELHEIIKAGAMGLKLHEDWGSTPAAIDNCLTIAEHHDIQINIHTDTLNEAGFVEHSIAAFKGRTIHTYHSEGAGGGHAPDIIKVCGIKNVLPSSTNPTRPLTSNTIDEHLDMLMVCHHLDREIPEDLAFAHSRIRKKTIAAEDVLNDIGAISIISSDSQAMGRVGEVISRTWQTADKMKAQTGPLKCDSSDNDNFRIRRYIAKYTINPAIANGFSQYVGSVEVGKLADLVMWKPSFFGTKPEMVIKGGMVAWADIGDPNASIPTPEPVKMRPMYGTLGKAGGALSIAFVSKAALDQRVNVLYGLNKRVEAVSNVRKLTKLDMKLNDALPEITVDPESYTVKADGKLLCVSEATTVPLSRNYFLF

O=c1[nH]sc2ccccc12 [BIT, 1,2-benzoisothiazol-3 (2H)-one] was tested, and the IC50 (jack bean urease) was 132 µM, the IC50 [1] was 55 µM and the “anti-Helicobacter pylori activity (eradication rate)” value [2] was “stronger than that of MN”.
